Patent US20250283887A1, “FLUORESCENT-PROBE SOLUTION” (GORYO CHEMICAL, INC., priority 2022, published 2025)

How the values were obtained:
[1] = Storage stability of Tween 80-containing fluorescent-probe solutions of Test Examples 13 to 15 in sealed glass vials (HPLC purity); assay type: physicochemical; settings: vial stored at 25°C in the dark for 85 days; converted to 3 years (FIG. 4); DMSO 10-50 v/v % with Tween 80
Procedure: (§1) HPLC analysis was performed under the following conditions through use of a liquid chromatography system (UltiMate 3000, Thermo Fisher Scientific Inc.), and the ratio of the peak area of HMRef-αMan with respect to the entire peak area was calculated as a purity. • Column: Meteoric core C8, 5 μm, 4.6×150 mm (YMC Co., Ltd.) • Column temperature: 25° C. • Mobile phase A: water/TFA (1,000:1) • Mobile phase B: acetonitrile/TFA (1,000:1) • Liquid-feeding amount: 1.0 mL/min. • Wavelength: 254 nm • Liquid feeding to mobile phase: The liquid was fed under the conditions shown in the following table.
A glass vial was filled with the fluorescent-probe solution obtained in each of Test Examples 13 to 15, and sealed with a rubber stopper. The vial filled with each of the fluorescent-probe solutions was stored at 25° C. in the dark for 85 days, and analysis was performed by liquid chromatography.
In the same manner as in Test Examples 1 to 11, the purity of HMRef-αMan and the content of the oxidized form thereof in each of the fluorescent-probe solutions within 12 hours after preparation, and those in each of the fluorescent-probe solutions after storage for 85 days in the vials were measured, and the reduction amount of the purity and the increase amount of the oxidized form in 3 years were calculated as converted values. […]

[2] = Storage stability of fluorescent-probe solutions of Test Examples 1 to 11 in sealed glass vials (HPLC purity); assay type: physicochemical
Procedure: A 25 mL glass vial (manufactured by Daiwa Special Glass Co., Ltd.) was filled with 0.125 mL to 0.312 mL of the fluorescent-probe solution obtained in each of Test Examples 1 to 11, and the opening of the glass vial was plugged with a rubber stopper (No. 20-T manufactured by Maruemu Corporation), and then tightly sealed with an aluminum cap over the rubber stopper. The vial filled with each of the fluorescent-probe solutions was stored at 25° C. or 50° C. in the dark for from 25 days to 32 days.
The purity of HMRef-αMan in each of the fluorescent-probe solutions within 12 hours after preparation, and that in each of the fluorescent-probe solutions after storage for from 25 days to 32 days in the vials were measured as described below, and the difference between the purities (the former−the latter) was divided by the number of storage days. Thus, the reduction amount of the purity per day was calculated. In addition, the reduction amount of the purity (converted value) in storage (3 years) at room temperature or in storage (1 year) at 50° C. was calculated from the reduction amount of the purity per day. All the purities of HMRef-αMan within 12 hours after the preparation of the fluorescent-probe solutions obtained in Test Examples 1 to 11 were 99% or more.
as §1, with “table. […]” for “table.”

OC[C@H]1O[C@H](Cc2ccc3c(c2)Oc2cc(NCC(F)(F)F)ccc2C32OCc3ccccc32)[C@@H](O)[C@@H](O)[C@@H]1O (stereo partly shown) [HMRef-αMan]
reduction in purity of HMRef-αMan during storage [1]: suppressed even when the content of the organic solvent is reduced by adding the solubilizer | main analog observed after storage (mass spectrometry of resolved HPLC peak) ([2]; after storage for 25 to 32 days in the vials): an analog (oxidized form) in which two hydrogen atoms were lost from HMRef-αMan was observed as a main analog | stability during storage ([2]; presence of water in the solvent, FIG. 1 and FIG. 2): improved | reduction in purity of HMRef-αMan during storage ([2]; vial stored at 25°C or 50°C in the dark for 25 to 32 days, converted to 3 years at room temperature / 1 year at 50°C (FIG. 1, FIG. 2), DMSO/water with or without phosphate): suppressed by the presence of water in the solvent
